How the values were obtained:
pepsin = molecular target: T1, pepsin (Sus scrofa, UniProt P00791); assay: TNS displacement fluorescence; type: binding; details: 4 µM protein, 4 µM TNS, 4 µM lipid; 0.05 M HCl pH 2.0, 25 °C
T1 construct: gene PGA; commercial native porcine pepsin (Sigma-Aldrich), mature enzyme without propeptide

Gly m 4 = molecular target: T2, Gly m 4 (Glycine max, UniProt P26987); assay: TNS displacement fluorescence; type: binding; details: 4 µM protein, 4 µM TNS, 4 µM lipid; 0.01 M phosphate pH 7.4, 25 °C
T2 construct: gene PR-10
T2 sequence (P26987 1-158): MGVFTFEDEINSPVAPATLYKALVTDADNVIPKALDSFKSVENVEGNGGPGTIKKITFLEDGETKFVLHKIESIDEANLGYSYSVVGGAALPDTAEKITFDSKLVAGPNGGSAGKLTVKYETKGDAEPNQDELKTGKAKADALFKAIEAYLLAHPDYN

T1 sequence (P00791 60-385): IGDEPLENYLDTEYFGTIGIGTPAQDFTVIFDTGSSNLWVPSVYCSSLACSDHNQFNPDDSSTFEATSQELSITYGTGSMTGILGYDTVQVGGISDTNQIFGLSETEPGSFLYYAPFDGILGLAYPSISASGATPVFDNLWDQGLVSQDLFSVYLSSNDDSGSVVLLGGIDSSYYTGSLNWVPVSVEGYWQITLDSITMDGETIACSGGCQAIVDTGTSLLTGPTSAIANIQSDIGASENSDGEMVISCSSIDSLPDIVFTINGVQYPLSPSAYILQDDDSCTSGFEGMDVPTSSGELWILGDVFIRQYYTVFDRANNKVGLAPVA

SMILES | % of control TNS fluorescence (pepsin) | % of control TNS fluorescence (Gly m 4)
CCCCCCCCCCCCCCCCCC(=O)O [STE, stearic acid] | pepsin bound to the tested FAs and LPPG with an equal efficiency | 
CCCCCCCCCCCCCCCC(=O)OC[C@@H](O)COP(=O)(O)OCC(O)CO (some centres unmarked) [LPPG, 1-palmitoyl-2-hydroxy-sn-glycero-3-phosphoglycerol] | pepsin bound to the tested FAs and LPPG with an equal efficiency | 26%
CCCCCCCC/C=C\CCCCCCCC(=O)O [OLE, oleic acid] | pepsin bound to the tested FAs and LPPG with an equal efficiency | 12%

From paper PMC8537068, “Do Lipids Influence Gastrointestinal Processing: A Case Study of Major Soybean Allergen Gly m 4” (Membranes, 2021)
